From PubChem BioAssay (NCI)
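A five-concentration, 48-hour dose response in 96-well plates underlies each endpoint, interpolated linearly between surrounding concentrations. At the GI50, growth is halved. The concentration for full growth arrest is given as TGI.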

Experiments:
Assay in all cases: DTP human tumour cell line panel, 48 h
[1] = tested on: HS 578T breast
[2] = tested on: SK-MEL-2 melanoma
[3] = tested on: HOP-18 NSCLC
[4] = tested on: DU-145 prostate
[5] = tested on: LOX IMVI melanoma
[6] = tested on: OVCAR-4 ovarian
[7] = tested on: OVCAR-5 ovarian
[8] = tested on: HCC-2998 colon
[9] = tested on: SNB-19 CNS
[10] = tested on: NCI-H460 lung
[11] = tested on: MDA-MB-435
[12] = tested on: A498 renal
[13] = tested on: CAKI-1 renal
[14] = tested on: UACC-62 melanoma
[15] = tested on: SK-OV-3 ovarian
[16] = tested on: SR leukemia
[17] = tested on: HCT-116 colon
[18] = tested on: U251 CNS
[19] = tested on: HOP-62 NSCLC
[20] = tested on: SNB-75 CNS
[21] = tested on: A549 NSCLC
[22] = tested on: MDA-MB-231 breast
[23] = tested on: COLO 205 colon
[24] = tested on: KM20L2 colon
[25] = tested on: RXF 393 renal
[26] = tested on: IGROV1 ovarian
[27] = tested on: MALME-3M melanoma
[28] = tested on: PC-3 prostate
[29] = tested on: DMS 273 small cell lung
[30] = tested on: RPMI-8226 leukemia
[31] = tested on: MOLT-4 leukemia
[32] = tested on: SW-620 colon
[33] = tested on: BT-549 breast
[34] = tested on: UO-31 renal
[35] = tested on: SNB-78 CNS
[36] = tested on: OVCAR-8 ovarian
[37] = tested on: EKVX NSCLC
[38] = tested on: M14 melanoma
[39] = tested on: MCF7 breast
[40] = tested on: TK-10 renal
[41] = tested on: T-47D breast
[42] = tested on: HOP-92 NSCLC
[43] = tested on: KM12 colon
[44] = tested on: LXFL 529 NSCLC
[45] = tested on: M19-MEL melanoma
[46] = tested on: SK-MEL-5 melanoma
[47] = tested on: SF-539 CNS
[48] = tested on: ACHN renal
[49] = tested on: HT29 colon
[50] = tested on: SF-268 CNS
[51] = tested on: HCT-15 colon
[52] = tested on: NCI-H522 lung
[53] = tested on: HL-60(TB) leukemia
[54] = tested on: NCI-H226 lung
[55] = tested on: SN12C renal
[56] = tested on: OVCAR-3 ovarian
[57] = tested on: UACC-257 melanoma
[58] = tested on: SK-MEL-28 melanoma
[59] = tested on: 786-0 renal
[60] = tested on: SF-295 CNS
[61] = tested on: K-562 leukemia
[62] = tested on: DLD-1 colon
[63] = tested on: NCI-H23 lung
[64] = tested on: CCRF-CEM leukemia

Molecule `Cc1cc(=O)[nH]c(NN2C(Cl)C(=O)C2c2ccc(O)cc2)n1` (stereo not given) has a TGI [1] of 51.7 µM, a TGI [2] of 29.5 µM and a TGI [3] of 27.8 µM. For the same molecule, the TGI [4] was 22.8 µM, the TGI [5] was 7.27 µM and the TGI [6] was 19 µM. It also gave a TGI [7] of 35.2 µM, a TGI [8] of 23.3 µM and a TGI [9] of 23.2 µM. It also gave a TGI [10] of 18.1 µM, a TGI [11] of 20.5 µM and a TGI [12] of 21.5 µM. For the same molecule, the TGI [13] was 20.4 µM, the TGI [14] was 18.7 µM and the TGI [15] was 23.4 µM. It also gave a TGI [16] greater than 25.6 µM, a TGI [17] of 14.3 µM and a TGI [18] of 18.4 µM. It also gave a TGI [19] of 19 µM, a TGI [20] of 7.92 µM and a TGI [21] of 31.2 µM. It also gave a TGI [22] of 30 µM, a TGI [23] of 40.7 µM and a TGI [24] of 46.5 µM. It also gave a TGI [25] of 17.2 µM, a TGI [26] of 21.7 µM and a TGI [27] of 30.7 µM. The TGI [28] was 26.8 µM, the TGI [29] was 18.1 µM and the TGI [30] was 5.59 µM. It also gave a TGI [31] greater than 79.2 µM, a TGI [32] of 28.9 µM and a TGI [33] of 27.1 µM. The TGI [34] was 22.4 µM, the TGI [35] was 24.2 µM and the TGI [36] was 28.6 µM. For the same molecule, the TGI [37] was 18.3 µM, the TGI [38] was 24.6 µM and the TGI [39] was 27.4 µM. For the same molecule, the TGI [40] was 31.7 µM, the TGI [41] was 32.2 µM and the TGI [42] was 29.4 µM. It also gave a TGI [43] of 25 µM, a TGI [44] of 22.2 µM and a TGI [45] of 23.1 µM. For the same molecule, the TGI [46] was 21.5 µM, the TGI [47] was 24.3 µM and the TGI [48] was 22 µM. The TGI [49] was 35.1 µM, the TGI [50] was 32.3 µM and the TGI [51] was 15.4 µM. For the same molecule, the TGI [52] was 32.8 µM, the TGI [53] was 7.69 µM and the TGI [54] was 32.6 µM. For the same molecule, the TGI [55] was 23.5 µM, the TGI [56] was 18.9 µM and the TGI [57] was 26.1 µM. It also gave a TGI [58] of 24.1 µM, a TGI [59] of 18.2 µM and a TGI [60] of 21.4 µM.

With `O=C1C(C(Nc2ccccc2)c2ccccc2)=C([O-])c2ccccc21.O=C1C(C(Nc2ccccc2)c2ccccc2)=C([O-])c2ccccc21.[Co+2]` (stereo not given) the GI50 [3] was 11.5 µM, the TGI [3] was greater than 100 µM and the GI50 [6] was 3.38 µM. The TGI [6] was 9.92 µM, the GI50 [9] was greater than 100 µM and the TGI [9] was greater than 100 µM. For the same molecule, the GI50 [61] was 3.2 µM, the TGI [61] was greater than 100 µM and the GI50 [12] was 5.13 µM. The TGI [12] was greater than 100 µM, the GI50 [13] was 18.7 µM and the TGI [13] was greater than 100 µM. For the same molecule, the GI50 [14] was 5.45 µM, the TGI [14] was greater than 100 µM and the GI50 [16] was 6.07 µM. It also gave a TGI [16] greater than 100 µM, a GI50 [17] of 3.15 µM and a TGI [17] greater than 100 µM. It also gave a GI50 [62] of 4.02 µM, a TGI [62] greater than 100 µM and a GI50 [19] greater than 100 µM. It also gave a TGI [19] greater than 100 µM, a GI50 [20] of 4.49 µM and a TGI [20] of 79.8 µM. For the same molecule, the GI50 [21] was 4.2 µM, the TGI [21] was greater than 100 µM and the GI50 [26] was 5.6 µM. The TGI [26] was greater than 100 µM, the GI50 [27] was 5.48 µM and the TGI [27] was greater than 100 µM. For the same molecule, the GI50 [29] was 4.08 µM, the TGI [29] was greater than 100 µM and the GI50 [30] was 2800 nM. The TGI [30] was greater than 100 µM, the GI50 [31] was 4.04 µM and the TGI [31] was greater than 100 µM. For the same molecule, the GI50 [32] was 4.75 µM, the TGI [32] was greater than 100 µM and the GI50 [34] was 2690 nM. It also gave a TGI [34] of 53.8 µM, a GI50 [35] greater than 100 µM and a TGI [35] greater than 100 µM. For the same molecule, the GI50 [38] was 3.86 µM, the TGI [38] was greater than 100 µM and the GI50 [40] was 5.48 µM. It also gave a TGI [40] of 86 µM, a GI50 [42] of 6.92 µM and a TGI [42] greater than 100 µM. The GI50 [45] was 15.2 µM, the TGI [45] was greater than 100 µM and the GI50 [46] was 3.78 µM. It also gave a TGI [46] greater than 100 µM, a GI50 [47] of 3.3 µM and a TGI [47] greater than 100 µM. It also gave a GI50 [48] of 6.62 µM, a TGI [48] greater than 100 µM and a GI50 [52] of 2310 nM. It also gave a TGI [52] of 5.43 µM, a GI50 [53] of 3.72 µM and a TGI [53] greater than 100 µM. It also gave a GI50 [57] of 5.04 µM, a TGI [57] of 46.4 µM and a GI50 [58] of 5.55 µM. It also gave a TGI [58] greater than 100 µM, a GI50 [63] of 4.3 µM and a TGI [63] greater than 100 µM. The GI50 [64] was 4.96 µM, the TGI [64] was greater than 100 µM and the GI50 [59] was 7.11 µM. The TGI [59] was greater than 100 µM.
